Data: PubChem BioAssay AID330 (DTP/NCI, 2004)
“And” between values parts separate entries of the source, which are not always exact repeats. Identical values can stand only once. Toxic doses and inconclusive results are not listed. The calls were made as follows: active = survival T/C of 150% or more; inactive = T/C below 125% in these data.

Test system: P388 leukemia ip, CD2F1 mice, survival T/C
Assay: NCI In Vivo Anticancer Drug Screen. Data for tumor model P388 Leukemia (intraperitoneal) in CD2F1 (CDF1) mice
Details: endpoint: median survival time, higher = longer survival
Procedure: The antitumor activity of compounds was measured in mice bearing transplantable tumors. Survival or tumor size were measured and the results are expressed as the measurement made in the treated group (T) divided by the measurement made in the vehicle treated control group (C). The tumor model used in this assay is P388 Leukemia (intraperitoneal) in CD2F1 (CDF1) mice

[1] = dose: 100.0 mg/kg/injection, schedule: Q01DX009 (ip), vehicle: saline with Tween-80
[2] = dose: 200.0 mg/kg/injection, schedule: Q01DX009 (ip), vehicle: saline with Tween-80
[3] = dose: 12.5 mg/kg/injection, schedule: Q01DX009 (ip), vehicle: saline with Tween-80
[4] = dose: 25.0 mg/kg/injection, schedule: Q01DX009 (ip), vehicle: saline with Tween-80
[5] = dose: 50.0 mg/kg/injection, schedule: Q01DX009 (ip), vehicle: saline with Tween-80
[6] = dose: 50.0 mg/kg/injection, schedule: Q04DX003 (ip), vehicle: saline sonified
[7] = dose: 50.0 mg/kg/injection, schedule: Q01DX009 (ip), vehicle: Klucel (hydroxypropylcellulose) (HPC)
[8] = dose: 100.0 mg/kg/injection, schedule: Q01DX009 (ip), vehicle: Klucel (hydroxypropylcellulose) (HPC)
[9] = dose: 50.0 mg/kg/injection, schedule: Q01DX005 (ip), vehicle: Klucel (hydroxypropylcellulose) (HPC)
[10] = dose: 100.0 mg/kg/injection, schedule: Q01DX005 (ip), vehicle: Klucel (hydroxypropylcellulose) (HPC)
[11] = dose: 200.0 mg/kg/injection, schedule: Q01DX005 (ip), vehicle: Klucel (hydroxypropylcellulose) (HPC)
[12] = dose: 100.0 mg/kg/injection, schedule: Q04DX002 (ip), vehicle: saline with Tween-80
[13] = dose: 200.0 mg/kg/injection, schedule: Q04DX002 (ip), vehicle: saline with Tween-80
[14] = dose: 60.0 mg/kg/injection, schedule: Q01DX005 (ip), vehicle: saline with Tween-80
[15] = dose: 120.0 mg/kg/injection, schedule: Q01DX005 (ip), vehicle: saline with Tween-80
[16] = dose: 240.0 mg/kg/injection, schedule: Q01DX005 (ip), vehicle: saline with Tween-80
[17] = dose: 50.0 mg/kg/injection, schedule: Q04DX003 (ip), vehicle: saline
[18] = dose: 100.0 mg/kg/injection, schedule: Q04DX003 (ip), vehicle: saline
[19] = dose: 50.0 mg/kg/injection, schedule: Q01DX009 (ip), vehicle: saline
[20] = dose: 50.0 mg/kg/injection, schedule: Q01DX005 (ip), vehicle: saline with Tween-80
[21] = dose: 100.0 mg/kg/injection, schedule: Q01DX005 (ip), vehicle: saline with Tween-80
[22] = dose: 200.0 mg/kg/injection, schedule: Q01DX005 (ip), vehicle: saline with Tween-80

Measured: T/C

c1ccc(Cc2ccccn2)nc1
inactive: [1] 104 % of control | [2] 104 % of control | dose: 400.0 mg/kg/injection, schedule: Q01DX009 (ip), vehicle: saline with Tween-80 95 % of control

FC(F)(F)c1ccc(-c2ccc(OCCN3CCCC3)cc2)cc1
inactive: [3] 86 % of control | [4] 86 % of control | [5] 86 % of control | [6] 87 % of control

Cc1ncc(CO)c(CO)c1OCC(O)CN1CCN(C(=O)c2ccccc2)CC1 (centres undefined)
inactive: dose: 60.0 mg/kg/injection, schedule: Q01DX005 (ip), vehicle: saline 101 % of control | dose: 120.0 mg/kg/injection, schedule: Q01DX005 (ip), vehicle: saline 104 % of control

COc1c(C(C)(C)C)cc(C(C)(C)C)c(OC)c1Br
inactive: [7] 100 % of control | [8] 94 % of control | dose: 200.0 mg/kg/injection, schedule: Q01DX009 (ip), vehicle: Klucel (hydroxypropylcellulose) (HPC) 87 % of control

CCCCOP(=O)(CCCC)OCCCC.CCCCOP(=O)(CCCC)OCCCC.CCCCOP(=O)(CCCC)OCCCC.CCCCOP(=O)(CCCC)OCCCC.O.O.[Co+2].[O-][Cl+3]([O-])([O-])O
inactive: [4] 87 % of control | [5] 100 % of control and 104 % of control | [1] 116 % of control

O=C(Oc1ccccc1OC(=O)c1ccccc1)c1ccccc1
inactive: dose: 6.25 mg/kg/injection, schedule: Q01DX009 (ip), vehicle: saline with Tween-80 108 % of control | [3] 102 % of control | [4] 106 % of control | [5] 108 % of control

Oc1ccc(C2c3ccccc3Oc3ccccc32)c2cccnc12
inactive: [9] 89 % of control | [10] 89 % of control | [11] 86 % of control

C1CC[N+](=c2nc(N3CCOCC3)ss2)C1
inactive: dose: 50.0 mg/kg/injection, schedule: Q04DX002 (ip), vehicle: saline with Tween-80 100 % of control | [12] 99 % of control | [13] 99 % of control

O=C(O)CCCC#C/C=C/CCCC/C=C(Br)\C=C/Br
inactive: dose: 62.5 mg/kg/injection, schedule: Q01DX009 (ip), vehicle: olive oil, sesame oil, peanut oil 106 % of control | dose: 125.0 mg/kg/injection, schedule: Q01DX009 (ip), vehicle: olive oil, sesame oil, peanut oil 96 % of control | dose: 250.0 mg/kg/injection, schedule: Q01DX009 (ip), vehicle: olive oil, sesame oil, peanut oil 100 % of control

O=Cc1c(-c2ccc(-c3ccccc3)cc2)nc2sccn12
inactive: dose: 100.0 mg/kg/injection, schedule: Q01DX001 (ip), vehicle: Klucel (hydroxypropylcellulose) (HPC) 86 % of control | dose: 200.0 mg/kg/injection, schedule: Q01DX001 (ip), vehicle: Klucel (hydroxypropylcellulose) (HPC) 89 % of control | dose: 400.0 mg/kg/injection, schedule: Q01DX001 (ip), vehicle: Klucel (hydroxypropylcellulose) (HPC) 89 % of control

OC1CC2c3ccccc3C1C1CCCCN21 (centres undefined)
inactive: dose: 12.5 mg/kg/injection, schedule: Q04DX002 (ip), vehicle: saline 106 % of control | dose: 25.0 mg/kg/injection, schedule: Q04DX002 (ip), vehicle: saline 109 % of control | dose: 50.0 mg/kg/injection, schedule: Q04DX002 (ip), vehicle: saline 106 % of control

CC(C)(C)c1ccc(-c2cc3nc(-c4ccccc4)cc(=O)n3[nH]2)cc1
inactive: [14] 100 % of control | [15] 98 % of control | [16] 98 % of control

NS(=O)(=O)c1cc2c(cc1Cl)NC(CCC(=O)O)=NS2(=O)=O
inactive: dose: 12.5 mg/kg/injection, schedule: Q01DX009 (ip), vehicle: distilled water + Tween-80 93 % of control | dose: 25.0 mg/kg/injection, schedule: Q01DX009 (ip), vehicle: distilled water + Tween-80 102 % of control | dose: 25.0 mg/kg/injection, schedule: Q01DX009 (ip), vehicle: other 92 % of control | dose: 50.0 mg/kg/injection, schedule: Q01DX009 (ip), vehicle: distilled water + Tween-80 98 % of control | dose: 50.0 mg/kg/injection, schedule: Q01DX009 (ip), vehicle: other 90 % of control | dose: 100.0 mg/kg/injection, schedule: Q01DX009 (ip), vehicle: distilled water + Tween-80 102 % of control | dose: 100.0 mg/kg/injection, schedule: Q01DX009 (ip), vehicle: other 90 % of control | dose: 200.0 mg/kg/injection, schedule: Q01DX009 (ip), vehicle: distilled water + Tween-80 102 % of control | dose: 400.0 mg/kg/injection, schedule: Q01DX009 (ip), vehicle: distilled water + Tween-80 98 % of control | dose: 400.0 mg/kg/injection, schedule: Q01DX009 (ip), vehicle: other 97 % of control

COc1ccc(OC)c2c(=O)c(C)c(C(=O)O)[nH]c12
inactive: dose: 100.0 mg/kg/injection, schedule: Q01DX001 (ip), vehicle: alkali diluted with saline 103 % of control | dose: 200.0 mg/kg/injection, schedule: Q01DX001 (ip), vehicle: alkali diluted with saline 100 % of control | dose: 400.0 mg/kg/injection, schedule: Q01DX001 (ip), vehicle: alkali diluted with saline 98 % of control

CSC(SC)=C(C#N)c1nc(SC)c(C#N)c(SC)n1
inactive: [17] 102 % of control | [18] 112 % of control

CC(C)NCCO
inactive: [19] 100 % of control | [17] 100 % of control | [18] 109 % of control | dose: 200.0 mg/kg/injection, schedule: Q04DX003 (ip), vehicle: saline 109 % of control

N/C(=N\O)c1c(Br)n(C2OC(CO)C(O)C2O)c2ncnc(N)c12 (centres undefined)
inactive: [14] 109 % of control and 122 % of control | [15] 120 % of control and 122 % of control | [16] 116 % of control | dose: 480.0 mg/kg/injection, schedule: Q01DX005 (ip), vehicle: saline with Tween-80 114 % of control

COc1ccc2c(c1O)-c1cc(O)cc3c1[C@@H](C2)N(C)CC3
inactive: [20] 104 % of control | [21] 104 % of control

CC(C)(C)OC(=O)NCCCCC(NC(=O)OCc1ccccc1)C(=O)O (centres undefined)
inactive: dose: 25.0 mg/kg/injection, schedule: Q01DX005 (ip), vehicle: Klucel (hydroxypropylcellulose) (HPC) 102 % of control | [9] 100 % of control | [10] 101 % of control

O=S(=O)(O/C(=C(\OS(=O)(=O)C(F)(F)F)c1ccccc1)c1ccccc1)C(F)(F)F
inactive: [9] 97 % of control | [10] 98 % of control | [11] 91 % of control

CCCOCCOCCOC(C)Oc1ccc(OC)cc1 (centres undefined)
inactive: [14] 105 % of control | [15] 104 % of control | [16] 104 % of control

CC(C)N=Cc1ccccc1O.CC(C)N=Cc1ccccc1O.[Co]
inactive: dose: 12.5 mg/kg/injection, schedule: Q04DX003 (ip), vehicle: saline sonified 110 % of control | dose: 25.0 mg/kg/injection, schedule: Q04DX003 (ip), vehicle: saline sonified 100 % of control | [6] 105 % of control

CCc1ccc(NC(=O)/C=C\C(=O)O)cc1
inactive: [20] 98 % of control | [21] 95 % of control | [22] 90 % of control

CC1=Nc2ccccc2NC2(C1)C(C1COC(C)(C)O1)OC1OC(C)(C)OC12 (centres undefined)
inactive: [20] 95 % of control | [21] 99 % of control | [22] 100 % of control

O=C(NCCCl)Nc1ccccc1C(=O)O
inactive: [5] 90 % of control | [1] 95 % of control | [2] 99 % of control

C[CH](C)[GeH]([CH](C)C)[CH](C)C
inactive: [19] 91 % of control | dose: 100.0 mg/kg/injection, schedule: Q01DX009 (ip), vehicle: saline 91 % of control

CNC(=O)SCCC(=O)OC
inactive: [20] 98 % of control | [21] 100 % of control | [22] 100 % of control

Nc1cc(-c2ccc(Cl)cc2)nn1-c1nnc2c(n1)[nH]c1ccccc12
inactive: [12] 92 % of control | [13] 94 % of control | dose: 400.0 mg/kg/injection, schedule: Q04DX002 (ip), vehicle: saline with Tween-80 99 % of control

CCOC(=O)c1cccc(C(=O)OCC)c1
inactive: [5] 99 % of control | [1] 106 % of control | [2] 108 % of control

C1=Nc2ccccc2Oc2ccc3ccccc3c21
inactive: [5] 107 % of control | [1] 99 % of control | [2] 107 % of control

COC(=O)CCC(Br)(Br)Br
inactive: [7] 94 % of control | [8] 99 % of control
